In US11926860B2, “Method of screening inhibitor of caspase activity by lipopolysaccharide” (KOREA INSTITUTE OF SCIENCE AND TECHNOLOGY, priority 2021, dated 2024):

How the values were obtained:
binding of CARD and LPS = target: T1, binding of CARD and LPS (Homo sapiens, UniProt P49662, M1C); experiment: FP competition assay of hit compounds; details: compound 50 μM to 0.022 μM, 6.4 μM LPS-Ra, 50 nM tracer, buffer C, 37° C. 1 hour
T1 construct: three types of cysteine-inserted CARD(1-80) variants (Cys-His-CARD, His-Cys-CARD (M1C-CARD), and His-CARD-Cys); His6 (N); made in house; host or cells: E. coli CLEARCOLI BL21(DE3)
T1 sequence (P49662 1-80 M1C): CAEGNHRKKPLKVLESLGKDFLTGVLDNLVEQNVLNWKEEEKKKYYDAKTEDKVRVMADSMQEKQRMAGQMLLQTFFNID
Procedure: In detail, the FP competition assay was performed by mixing 50 nM of tracer, 6.4 μM of LPS-Ra, and 3-fold serially diluted hit compound (50 μM to 0.022862 μM) in buffer C. The mixture was incubated at 37° C. for 1 hour before measurement. FP values were expressed as a function of compound concentrations, and IC50 values were obtained from a sigmoidal curve fit, as analyzed in GRAPHPAD PRISM 8.

[1] = FP binding assay of ALEXA FLUOR 488-CARD and LPS; details: for effect of additive on binding of CARD and LPS: buffer C with 0.1 mg/mL BSA, 0.01% NP-40, or 1 mM MC (MgCl2+CaCl2), 37° C. 1 hour
Procedure: Fluorescence polarization (FP) was measured with an APPLISKAN microplate reader (ThermoFisher) using 485 nm excitation and 535 nm emission filters. The FP value was calculated according to the following equation: FP (mP)=1000×(Is−G×Ip)/(Is+G×Ip). In the equation, Is represents a parallel (equivalent) emission intensity, Ip represents a perpendicular emission intensity, and G represents a lattice coefficient 0.877.
FP binding assay was performed by adding 200 μL of a reaction mixture to each well of a black 96-well plate (SPL Life Sciences). The reaction mixture includes 50 nM ALEXA FLUOR 488-CARD (tracer) with increasing concentrations of LPS-Ra (in the range of 0 μM to 12.8 μM, a molecular weight of LPS-Ra is assumed to be 3,835 g/mole, Sigma-Aldrich) in a buffer C or an indicated buffer. The reaction mixture was incubated at 37° C. for 30 minutes to 4 hours before reaction. FP values are expressed as a function of LPS-Ra concentration. FP binding curves of His-Cys-CARD (ALEXA FLUOR 488-CARD) or ALEXA FLUOR 488 alone (dye) with respect to the concentrations of LPS are shown in FIG. 2E.
Apparent equilibrium dissociation constants (Kd^app) were calculated from the nonlinear regression curve fit, as analyzed in GRAPHPAD PRISM 8 from the FP binding curves.
An FP binding curve from FP values measured with buffer C (50 mM Tris-HCl pH 7.0, 150 mM NaCl) supplemented with additives such as 0.1 mg/mL BSA, 0.01% NP-40, or 1 mM MC (MgCl2+CaCl2) is shown in FIG. 3A. An FP binding curve from FP values measured by incubating ALEXA FLOUR 488-CARD serially diluted with buffer C for 0.5 hours to 4 hours is shown in FIG. 3B (grey area: range of 20 nM to 50 nM). An FP binding curve from FP values measured by incubating different concentrations of LPS-Ra in buffer C for 0.5 hours to 4 hours is shown in FIG. 3D. An FP binding curve from FP values measured with buffer C supplemented with different concentrations of DMSO is shown in FIG. 3E. In addition, LPS-Ra concentration-dependent Z′ factor was evaluated in buffer C supplemented with 0% to 10% DMSO. […]

[2] = Tryptophan fluorescence spectrometry of Casp-4 constructs binding to LPS; details: for Kd: 1 μM protein, LPS-Ra 0 μM to 50 μM, HBS-E buffer, 37° C. 30 minutes, fluorescence intensity at 334 nm, read-out: apparent equilibrium dissociation constant (Kd^app)
Procedure: Apparent dissociation constants were measured by tryptophan fluorescence spectrometry. […] Apparent dissociation constant values were calculated by analyzing the fluorescence emission spectra.
Fluorescence spectra were obtained with a FluoroMate FS-2 fluorescence spectrophotometer (Sinco) equipped with a quartz cuvette with a 5 mm path length. 1 μM of the recombinant protein was mixed with increasing concentrations of LPS-Ra (in the range of 0 μM to 50 μM) in an HBS-E buffer (10 mM HEPES pH 7.5, 150 mM NaCl, 3 mM EDTA), and incubated at 37° C. for 30 minutes. The sample was excited at 280 nm, and emission spectra at 300 nm to 500 nm were recorded with an excitation/emission slit width of 2.5/5 nm, respectively. The fluorescence intensity of the sample was corrected by subtracting the background intensity of LPS alone. A difference in the fluorescence intensity at 334 nm was expressed as a function of LPS-Ra concentration, and the apparent equilibrium dissociation constant (Kd^app) was calculated from the nonlinear regression curve fit, as analyzed in GRAPHPAD PRISM 8. Graphs showing the emission spectra of the tryptophan residue in full-length C258A-Casp-4, CARD, and ΔCARD-C258A-Casp-4 in LPS-Ra (0 μM to 50 μM) are shown in FIG. 1B.

[3] = Surface plasmon resonance (SPR) of Casp-4 constructs on immobilized LPS; type: binding, E. coli; details: for Kd: 25° C., NH-LPS O55:B5 on CM5 chip, HBS-E, read-out: dissociation constant
Procedure: In addition, the binding affinity between Casp-4 and LPS was determined by a surface plasmon resonance (SPR) experiment. The SPR experiment was performed at 25° C. using a BIACORE T200 (Cytiva). A filtered and degassed running buffer (HBS-E) was prepared prior to use. Amine-derived LPS O55:B5 (NH-LPS, Sigma-Aldrich) was prepared by a method described in P. T. Wong et al., J Mater Chem B, 2015, 3, 1149-1156, herein incorporated by reference. NH-LPS was immobilized on a CM5 sensor chip (Cytiva) using an amine coupling method (480 RU), and blocked with 1 M ethanolamine (pH 8.5). Purified proteins of the indicated concentration were injected, and the resulting sensorgrams were analyzed using a BIACORE T200 Evaluation software.

**Q.** For `CCOc1ccc2nc3cc(N)ccc3c(N)c2c1` [C-8, Ethacridine lactate], which “IC50 (FP signal decrease, concentration-dependent)” value (binding of CARD and LPS) is on record?
**A.** The value was “μM level”.

**Q.** For `CN1CCN(c2ccc(C(=O)Nc3n[nH]c4ccc(Cc5cc(F)cc(F)c5)cc34)c(NC3CCOCC3)c2)CC1` [C-19, Entrectinib], which “IC50 (FP signal decrease, concentration-dependent)” value (binding of CARD and LPS) is on record?
**A.** The value was “μM level”.

**Q.** For NP-40, which “effect of additive on binding of CARD and LPS” value [1] is on record?
**A.** Its value is “inhibited”.

**Q.** With `Cn1cc(C2=C(c3cn(C4CCN(Cc5ccccn5)CC4)c4ccccc34)C(=O)NC2=O)c2ccccc21` [C-13, Enzastaurin] as the molecule, how does the “IC50 (FP signal decrease, concentration-dependent)” value (binding of CARD and LPS) read?
**A.** The value was “μM level”.

**Q.** Which “IC50 (FP signal decrease, concentration-dependent)” value (binding of CARD and LPS) does the source give for `O=C1c2c(O)ccc(O)c2C(=O)c2c(NCCNCCO)ccc(NCCNCCO)c21` [C-6, Mitoxantrone] here?
**A.** The value was “μM level”.

**Q.** For `CN(C)c1ccc(C(=C2C=CC(=[N+](C)C)C=C2)c2ccc(N(C)C)cc2)cc1` [C-5, Crystal violet], which “IC50 (FP signal decrease, concentration-dependent)” value (binding of CARD and LPS) is on record?
**A.** Its value is “μM level”.

**Q.** Which “IC50 (FP signal decrease, concentration-dependent)” value (binding of CARD and LPS) does the source give for `CC1=NN(c2ccc(C)c(C)c2)C(=O)/C1=N\Nc1cccc(-c2cccc(C(=O)O)c2)c1O` [C-11, Eltrombopag Olamine] here?
**A.** Its value is “μM level”.

**Q.** Which “IC50 (FP signal decrease, concentration-dependent)” value (binding of CARD and LPS) does the source give for `Cc1cc(Nc2ncc(Cl)c(Nc3ccccc3S(=O)(=O)C(C)C)n2)c(OC(C)C)cc1C1CCNCC1` [C-16, Ceritinib] here?
**A.** The value was “μM level”.

**Q.** For bovine serum albumin [BSA], which “effect of additive on binding of CARD and LPS” value [1] is on record?
**A.** Its value is “inhibited”.

**Q.** For `CN1CCN(c2nc(C3=C(c4c[nH]c5ccccc45)C(=O)NC3=O)c3ccccc3n2)CC1` [C-15, Sotrastaurin], which “IC50 (FP signal decrease, concentration-dependent)” value (binding of CARD and LPS) is on record?
**A.** Its value is “μM level”.

B1: C258A-Casp-4: Catalytically inactive full-length Casp-4 (1-377, C258A modification) (protein, UniProt P49662 1-377, looked up, variant C258A)
chain: MAEGNHRKKPLKVLESLGKDFLTGVLDNLVEQNVLNWKEEEKKKYYDAKTEDKVRVMADSMQEKQRMAGQMLLQTFFNIDQISPNKKAHPNMEAGPPESGESTDALKLCPHEEFLRLCKERAEEIYPIKERNNRTRLALIICNTEFDHLPPRNGADFDITGMKELLEGLDYSVDVEENLTARDMESALRAFATRPEHKSSDSTFLVLMSHGILEGICGTVHDEKKPDVLLYDTIFQIFNNRNCLSLKDKPKVIIVQAARGANRGELWVRDSPASLEVASSQSSENLEEDAVYKTHVEKDFIAFCSSTPHNVSWRDSTMGSIFITQLITCFQKYSWCCHLEEVFRKVQQSFETPRAKAQMPTIERLSMTRYFYLFPGN
modifications: full-length
**Q.** With B1 as the molecule, how does the Kd [2] read?
**A.** The Kd was 5.3 ± 0.5 µM.

**Q.** And the Kd [3]?
**A.** Its Kd is 2.4 µM.

B2: CARD: caspase activation and recruitment domain of Casp-4, residues 1-80, His6 tag at the N-terminus (protein)
chain: MAEGNHRKKPLKVLESLGKDFLTGVLDNLVEQNVLNWKEEEKKKYYDAKTEDKVRVMADSMQEKQRMAGQMLLQTFFNID
modifications: N-terminal His6 tag; Caspase-4 CARD polypeptide
**Q.** Which Kd [2] does the source give for B2 here?
**A.** The Kd was 6.5 ± 0.8 µM.

**Q.** What about the Kd [3] of the same molecule?
**A.** The Kd was 2.1 µM.

B3: ALEXA FLOUR 488-CARD: ALEXA FLUOR 488-labeled His-Cys-CARD (M1C-CARD), tracer for FP assays (conjugate, UniProt P49662 1-80, looked up, fragment M1C)
chain: CAEGNHRKKPLKVLESLGKDFLTGVLDNLVEQNVLNWKEEEKKKYYDAKTEDKVRVMADSMQEKQRMAGQMLLQTFFNID
modifications: CARD Alexa Fluor 488 label; His tag
notes: ALEXA FLUOR 488-labeled His-Cys-CARD (M1C-CARD), tracer for FP assays
**Q.** Which Kd ([1]; 50 nM ALEXA FLOUR 488-CARD, LPS-Ra 0 μM to 12.8 μM, buffer C, 37° C., read-out: Kd^app) does the source give for B3 here?
**A.** Its Kd is 2.2 ± 0.2 µM.

B4: ΔCARD-C258A-Casp-4: CARD truncated Casp-4 (81-377, C258A modification) (protein, UniProt P49662 81-377, looked up, fragment C258A)
chain: QISPNKKAHPNMEAGPPESGESTDALKLCPHEEFLRLCKERAEEIYPIKERNNRTRLALIICNTEFDHLPPRNGADFDITGMKELLEGLDYSVDVEENLTARDMESALRAFATRPEHKSSDSTFLVLMSHGILEGICGTVHDEKKPDVLLYDTIFQIFNNRNCLSLKDKPKVIIVQAARGANRGELWVRDSPASLEVASSQSSENLEEDAVYKTHVEKDFIAFCSSTPHNVSWRDSTMGSIFITQLITCFQKYSWCCHLEEVFRKVQQSFETPRAKAQMPTIERLSMTRYFYLFPGN
**Q.** For B4, which “binding to LPS” value ([2]; tryptophan fluorescence, FIG. 1B) is on record?
**A.** The value was “not identified”.

**Q.** And the “binding to LPS” value ([3]; FIG. 1C)?
**A.** Its value is “not identified”.
